Test results from US10710978B2, “STK4 inhibitors for treatment of hematologic malignancies” (Dana-Farber Cancer Institute, Inc., priority 2015, dated 2020).
Values joined by “and” are separate entries in the source; they are usually repeats but may differ in a detail not shown here. Equal entries are not always repeated. Where two headings read alike, the source gives them in different places.

Columns and labels:
[1] = biological target: CDK6 (Homo sapiens (Human), UniProt Q00534); test: KiNativ assay; type: binding; conditions: H929 live cell
Method: (§1) Biochemical IC50s of the compounds of the present disclosure against various kinases were measured in a KiNativ assay. Compounds were screened in duplicate at 10 μM in H929 live cell. IC50 was measured via Mass spectroscopy (MS).

[2] = biological target: CaMK4 (Homo sapiens (Human), UniProt Q16566); test: KiNativ assay; type: binding; conditions: H929 live cell
Outline: (§2)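 Mass spectrometry read-out of a KiNativ profile gave IC50 values; compounds were screened at 10 μM in duplicate in live H929 cells.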

[3] = biological target: Erk5 (Homo sapiens (Human), UniProt Q13164); test: KiNativ assay; type: binding; conditions: H929 live cell
Outline: as §2

[4] = biological target: GAK (Homo sapiens (Human), UniProt O14976); test: KiNativ assay; type: binding; conditions: H929 live cell
Outline: as §2

[5] = biological target: LATS2 (Homo sapiens (Human), UniProt Q9NRM7); test: KiNativ assay; type: binding; conditions: H929 live cell
Outline: as §2

[6] = biological target: MAP3K15 (Homo sapiens (Human), UniProt Q6ZN16); test: KiNativ assay; type: binding; conditions: H929 live cell
Outline: (§3)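 Each compound is applied at 10 μM to live H929 cells in duplicate. Kinase activity-site labelling is then analysed by KiNativ. IC50 is obtained by mass spectrometry.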

[7] = biological target: MELK (Homo sapiens (Human), UniProt Q14680); test: KiNativ assay; type: binding; conditions: H929 live cell
Outline: as §2

[8] = test system: MER, TYRO3; test: KiNativ assay; type: binding; conditions: H929 live cell; for % inhibition: 10 μM, range class
Outline: as §2

[9] = biological target: MLK4 (Homo sapiens (Human), UniProt Q5TCX8); test: KiNativ assay; type: binding; conditions: H929 live cell
Outline: as §2

[10] = biological target: PAK2 (Homo sapiens (Human), UniProt Q13177); test: KiNativ assay; type: binding; conditions: H929 live cell
Outline: as §3

[11] = biological target: PIP4K2B (Homo sapiens (Human), UniProt P78356); test: KiNativ assay; type: binding; conditions: H929 live cell
Outline: as §3

[12] = biological target: PYK2 (Homo sapiens (Human), UniProt Q14289); test: KiNativ assay; type: binding; conditions: H929 live cell
Outline: as §3

[13] = biological target: ULK3 (Homo sapiens (Human), UniProt Q6PHR2); test: KiNativ assay; type: binding; conditions: H929 live cell
Outline: as §2

[14] = biological target: ZC3/MINK (Homo sapiens (Human), UniProt Q8N4C8); test: KiNativ assay; type: binding; conditions: H929 live cell
Outline: as §3

[15] = biological target: STK3 (MST2) (Homo sapiens (Human), UniProt Q13188); test: Z-lyte biochemical IC50 assay (Invitrogen); conditions: ATP concentration matched the Km
[16] = biological target: ARAF (Homo sapiens (Human), UniProt P10398); test: KiNativ assay; type: binding; conditions: H929 live cell
Outline: as §3

[17] = biological target: CDK9 (Homo sapiens (Human), UniProt P50750); test: KiNativ assay; type: binding; conditions: H929 live cell
Outline: as §3

[18] = test system: CK1d, CK1e; test: KiNativ assay; type: binding; conditions: H929 live cell; for % inhibition (range): 10 μM
Outline: as §2

[19] = biological target: DNAPK (Homo sapiens (Human), UniProt P78527); test: KiNativ assay; type: binding; conditions: H929 live cell
Method: as §1

[20] = biological target: GPRK5 (Homo sapiens (Human), UniProt P34947); test: KiNativ assay; type: binding; conditions: H929 live cell
Outline: as §2

[21] = biological target: MAP2K2 (Homo sapiens (Human), UniProt P36507); test: KiNativ assay; type: binding; conditions: H929 live cell
Outline: as §2

[22] = biological target: QSK (Homo sapiens (Human), UniProt Q9Y2K2); test: KiNativ assay; type: binding; conditions: H929 live cell
Outline: as §3

[23] = biological target: SGK2 (Homo sapiens (Human), UniProt Q9HBY8); test: KiNativ assay; type: binding; conditions: H929 live cell
Outline: as §3

[24] = range class, read-out: % inhibition

Sequence of GAK (O14976 whole entry): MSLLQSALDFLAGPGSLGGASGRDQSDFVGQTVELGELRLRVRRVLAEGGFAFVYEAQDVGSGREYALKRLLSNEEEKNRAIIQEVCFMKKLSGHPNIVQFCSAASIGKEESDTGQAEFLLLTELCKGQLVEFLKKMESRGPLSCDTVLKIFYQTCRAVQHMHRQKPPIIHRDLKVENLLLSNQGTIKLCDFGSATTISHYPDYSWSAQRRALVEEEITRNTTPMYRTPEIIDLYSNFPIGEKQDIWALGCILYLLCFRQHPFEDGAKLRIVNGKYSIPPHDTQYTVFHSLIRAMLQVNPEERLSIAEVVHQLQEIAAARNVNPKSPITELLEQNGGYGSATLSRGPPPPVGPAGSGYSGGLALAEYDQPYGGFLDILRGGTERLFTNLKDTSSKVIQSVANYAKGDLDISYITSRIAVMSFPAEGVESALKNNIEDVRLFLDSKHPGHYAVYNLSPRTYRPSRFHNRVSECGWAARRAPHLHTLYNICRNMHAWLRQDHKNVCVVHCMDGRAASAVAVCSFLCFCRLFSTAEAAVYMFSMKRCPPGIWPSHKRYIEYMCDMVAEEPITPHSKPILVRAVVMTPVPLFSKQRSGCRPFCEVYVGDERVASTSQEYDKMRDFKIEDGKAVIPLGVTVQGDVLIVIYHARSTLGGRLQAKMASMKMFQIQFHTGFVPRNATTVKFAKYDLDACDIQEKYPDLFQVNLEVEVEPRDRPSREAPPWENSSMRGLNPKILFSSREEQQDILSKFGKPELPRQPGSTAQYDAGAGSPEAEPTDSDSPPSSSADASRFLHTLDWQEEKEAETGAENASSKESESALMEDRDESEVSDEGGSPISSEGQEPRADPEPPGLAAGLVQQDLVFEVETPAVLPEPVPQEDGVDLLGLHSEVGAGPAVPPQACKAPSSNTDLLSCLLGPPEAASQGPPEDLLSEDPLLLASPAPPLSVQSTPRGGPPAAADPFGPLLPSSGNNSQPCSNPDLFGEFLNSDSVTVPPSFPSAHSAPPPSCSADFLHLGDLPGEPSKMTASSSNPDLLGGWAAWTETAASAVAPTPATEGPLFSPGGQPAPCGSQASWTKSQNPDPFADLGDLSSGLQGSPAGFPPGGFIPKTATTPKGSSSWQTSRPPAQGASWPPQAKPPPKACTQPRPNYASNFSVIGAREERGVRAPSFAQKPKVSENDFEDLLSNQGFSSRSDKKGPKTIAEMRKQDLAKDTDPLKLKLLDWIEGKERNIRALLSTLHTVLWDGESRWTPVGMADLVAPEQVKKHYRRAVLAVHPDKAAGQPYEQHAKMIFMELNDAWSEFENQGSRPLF
Sequence of LATS2 (Q9NRM7 whole entry): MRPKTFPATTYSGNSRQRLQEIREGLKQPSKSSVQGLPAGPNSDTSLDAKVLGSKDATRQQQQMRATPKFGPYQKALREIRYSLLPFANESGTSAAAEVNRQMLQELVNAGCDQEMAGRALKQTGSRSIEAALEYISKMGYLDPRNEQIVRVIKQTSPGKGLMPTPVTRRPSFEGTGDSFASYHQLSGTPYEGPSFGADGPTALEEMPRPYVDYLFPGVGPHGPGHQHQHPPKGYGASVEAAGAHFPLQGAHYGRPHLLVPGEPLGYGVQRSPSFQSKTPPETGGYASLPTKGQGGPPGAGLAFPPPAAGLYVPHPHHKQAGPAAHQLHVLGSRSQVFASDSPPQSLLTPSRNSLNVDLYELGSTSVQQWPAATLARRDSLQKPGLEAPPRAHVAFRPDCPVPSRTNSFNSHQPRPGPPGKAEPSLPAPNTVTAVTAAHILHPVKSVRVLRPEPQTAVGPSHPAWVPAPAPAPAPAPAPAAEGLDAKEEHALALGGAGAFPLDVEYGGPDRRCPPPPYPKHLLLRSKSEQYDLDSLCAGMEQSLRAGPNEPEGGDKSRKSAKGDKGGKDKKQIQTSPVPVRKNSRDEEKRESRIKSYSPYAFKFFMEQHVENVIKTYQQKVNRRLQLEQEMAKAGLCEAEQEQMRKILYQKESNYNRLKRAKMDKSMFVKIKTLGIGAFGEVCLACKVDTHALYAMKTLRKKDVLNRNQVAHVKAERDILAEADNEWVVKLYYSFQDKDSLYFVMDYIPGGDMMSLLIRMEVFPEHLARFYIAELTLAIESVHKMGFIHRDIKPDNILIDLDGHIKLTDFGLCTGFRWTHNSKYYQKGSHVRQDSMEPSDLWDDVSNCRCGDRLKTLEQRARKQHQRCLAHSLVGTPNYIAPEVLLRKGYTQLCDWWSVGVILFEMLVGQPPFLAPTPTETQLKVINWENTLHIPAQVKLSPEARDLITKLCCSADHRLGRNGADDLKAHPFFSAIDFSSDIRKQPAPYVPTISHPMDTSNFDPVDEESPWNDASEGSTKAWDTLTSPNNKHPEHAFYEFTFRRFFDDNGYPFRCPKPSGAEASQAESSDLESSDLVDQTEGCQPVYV
Sequence of CDK9 (P50750 whole entry): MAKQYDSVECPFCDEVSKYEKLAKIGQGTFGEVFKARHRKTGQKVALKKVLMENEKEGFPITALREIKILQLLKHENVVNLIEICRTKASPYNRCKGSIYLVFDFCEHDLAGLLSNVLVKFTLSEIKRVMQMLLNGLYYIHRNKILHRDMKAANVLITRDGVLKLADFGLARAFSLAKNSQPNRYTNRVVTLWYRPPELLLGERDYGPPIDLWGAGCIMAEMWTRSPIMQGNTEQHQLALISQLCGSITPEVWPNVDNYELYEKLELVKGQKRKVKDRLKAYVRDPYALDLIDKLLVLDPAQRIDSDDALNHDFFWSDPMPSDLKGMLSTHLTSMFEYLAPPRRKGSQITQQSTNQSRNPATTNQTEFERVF
Sequence of CDK9 (O60563 whole entry partner): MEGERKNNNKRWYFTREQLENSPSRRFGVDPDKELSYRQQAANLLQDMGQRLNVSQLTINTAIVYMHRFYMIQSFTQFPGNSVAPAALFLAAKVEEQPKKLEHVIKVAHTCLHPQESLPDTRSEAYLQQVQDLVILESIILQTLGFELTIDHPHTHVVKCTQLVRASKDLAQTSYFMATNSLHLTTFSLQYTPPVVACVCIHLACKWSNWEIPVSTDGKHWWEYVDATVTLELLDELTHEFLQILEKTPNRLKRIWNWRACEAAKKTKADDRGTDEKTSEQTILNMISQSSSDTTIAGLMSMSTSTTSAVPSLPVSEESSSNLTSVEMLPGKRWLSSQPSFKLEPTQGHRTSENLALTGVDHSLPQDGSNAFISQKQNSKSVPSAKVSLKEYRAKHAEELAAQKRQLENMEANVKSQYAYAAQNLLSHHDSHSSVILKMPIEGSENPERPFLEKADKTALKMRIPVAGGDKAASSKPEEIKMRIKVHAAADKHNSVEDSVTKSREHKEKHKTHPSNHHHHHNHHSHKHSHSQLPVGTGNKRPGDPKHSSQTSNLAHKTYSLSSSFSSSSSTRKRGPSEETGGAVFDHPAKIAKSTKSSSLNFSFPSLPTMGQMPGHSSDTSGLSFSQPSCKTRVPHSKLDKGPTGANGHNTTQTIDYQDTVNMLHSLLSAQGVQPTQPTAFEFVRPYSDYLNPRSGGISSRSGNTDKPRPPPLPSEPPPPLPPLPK
Sequence of SGK2 (Q9HBY8 whole entry): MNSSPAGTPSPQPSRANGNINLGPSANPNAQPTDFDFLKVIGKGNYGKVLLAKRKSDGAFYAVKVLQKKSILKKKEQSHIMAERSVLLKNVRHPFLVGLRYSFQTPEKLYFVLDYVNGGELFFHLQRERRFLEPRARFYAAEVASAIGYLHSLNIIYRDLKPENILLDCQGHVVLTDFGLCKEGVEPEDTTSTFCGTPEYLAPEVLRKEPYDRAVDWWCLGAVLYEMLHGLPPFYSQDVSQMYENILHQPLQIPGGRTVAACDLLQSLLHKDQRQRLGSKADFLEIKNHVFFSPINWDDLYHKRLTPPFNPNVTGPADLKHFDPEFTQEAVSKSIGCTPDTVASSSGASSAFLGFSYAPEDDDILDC
Sequence of MAP2K2 (P36507 whole entry): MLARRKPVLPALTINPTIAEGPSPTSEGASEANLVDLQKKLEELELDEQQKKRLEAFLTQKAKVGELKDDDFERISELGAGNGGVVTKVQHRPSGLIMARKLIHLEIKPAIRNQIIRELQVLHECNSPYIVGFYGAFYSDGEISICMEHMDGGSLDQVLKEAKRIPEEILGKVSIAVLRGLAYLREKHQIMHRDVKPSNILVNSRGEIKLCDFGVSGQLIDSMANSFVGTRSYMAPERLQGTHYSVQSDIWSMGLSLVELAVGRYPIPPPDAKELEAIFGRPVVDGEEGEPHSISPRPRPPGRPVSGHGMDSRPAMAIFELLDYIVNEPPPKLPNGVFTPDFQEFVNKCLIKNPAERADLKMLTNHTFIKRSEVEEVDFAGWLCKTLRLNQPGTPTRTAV
Sequence of PIP4K2B (P78356 whole entry): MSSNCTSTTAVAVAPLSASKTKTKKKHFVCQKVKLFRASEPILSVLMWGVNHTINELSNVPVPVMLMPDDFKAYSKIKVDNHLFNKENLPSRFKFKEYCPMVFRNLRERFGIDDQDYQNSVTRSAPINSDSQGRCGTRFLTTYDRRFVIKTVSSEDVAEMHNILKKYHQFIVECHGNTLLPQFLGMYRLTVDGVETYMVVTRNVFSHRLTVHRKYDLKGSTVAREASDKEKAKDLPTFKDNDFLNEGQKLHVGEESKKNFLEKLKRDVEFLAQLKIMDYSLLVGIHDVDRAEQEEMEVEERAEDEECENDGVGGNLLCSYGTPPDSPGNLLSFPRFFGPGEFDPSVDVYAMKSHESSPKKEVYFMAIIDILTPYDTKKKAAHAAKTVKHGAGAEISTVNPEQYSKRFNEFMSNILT
Sequence of CDK6 (Q00534 whole entry): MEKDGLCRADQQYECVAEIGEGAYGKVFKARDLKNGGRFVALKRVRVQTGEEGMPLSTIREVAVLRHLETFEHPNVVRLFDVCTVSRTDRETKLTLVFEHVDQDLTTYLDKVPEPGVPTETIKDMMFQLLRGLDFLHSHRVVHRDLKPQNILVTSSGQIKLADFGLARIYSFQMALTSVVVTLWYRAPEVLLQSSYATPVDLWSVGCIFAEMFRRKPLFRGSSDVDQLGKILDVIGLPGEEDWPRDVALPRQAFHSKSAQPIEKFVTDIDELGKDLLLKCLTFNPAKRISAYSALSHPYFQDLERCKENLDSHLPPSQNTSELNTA

Nc1ncc(-c2ccc(NS(=O)(=O)C3CC3)cc2F)cc1-c1ccc2c(c1)CCNC2=O [Compound I-51, N-(4-(6-amino-5-(1-oxo-1,2,3,4-tetrahydroisoquinolin-6-yl)pyridin-3-yl)-3-fluorophenyl) cyclopropanesulfonamide]
inhibition at 10 µM [1, 24]: 0% | inhibition at 10 µM ([1]; read-out: inhibition (10 μM)): 10.7% | inhibition at 10 µM [2, 24]: 0% | inhibition at 10 µM ([2]; read-out: inhibition (10 μM)): -61.2% | inhibition at 10 µM [3, 24]: 0% | inhibition at 10 µM ([3]; read-out: inhibition (10 μM)): -13.2% | inhibition at 10 µM [4, 24]: 50 to 75% | inhibition at 10 µM ([4]; read-out: inhibition (10 μM)): 50.4% | inhibition at 10 µM [5, 24]: 0% | inhibition at 10 µM ([5]; read-out: inhibition (10 μM)): 16.1% | inhibition at 10 µM [6, 24]: 35 to 40% | inhibition at 10 µM ([6]; read-out: inhibition (10 μM)): 36.4% | inhibition at 10 µM [7, 24]: 35 to 40% | inhibition at 10 µM ([7]; read-out: inhibition (10 μM)): 49.5% | % inhibition [8]: 0.0% | inhibition (10 μM) [8]: −11.0% | inhibition at 10 µM [9, 24]: 0% | inhibition at 10 µM ([9]; read-out: inhibition (10 μM)): 14.2% | inhibition at 10 µM [10, 24]: 0% | inhibition at 10 µM ([10]; read-out: inhibition (10 μM)): -14% | inhibition at 10 µM [11, 24]: 0% | inhibition at 10 µM ([11]; read-out: inhibition (10 μM)): -47.1% | inhibition at 10 µM [12, 24]: 0% | inhibition at 10 µM ([12]; read-out: inhibition (10 μM)): 30.1% | inhibition at 10 µM [13, 24]: 0% | inhibition at 10 µM ([13]; read-out: inhibition (10 μM)): 1.8% | inhibition at 10 µM [14, 24]: 50 to 75% | inhibition at 10 µM ([14]; read-out: inhibition (10 μM)): 63.4%

CN(C1CC1)S(=O)(=O)c1ccc(-c2cnc(N)c(-c3ccc4c(c3)CCNC4=O)c2)c(F)c1 [Compound I-28, 4-(6-amino-5-(1-oxo-1,2,3,4-tetrahydroisoquinolin-6-yl)pyridin-3-yl)-N-cyclopropyl-3-fluoro-N-methylbenzenesulfonamide]
IC50 [15]: < 40 nM | inhibition at 10 µM ([16]; read-out: % inhibition (range)): 0% | inhibition at 10 µM ([16]; read-out: inhibition (10 μM)): 8% | inhibition at 10 µM ([17]; read-out: % inhibition (range)): 0% | inhibition at 10 µM ([17]; read-out: inhibition (10 μM)): 28.9% | % inhibition (range) [18]: 50-75% | inhibition (10 μM) [18]: 68.2% | inhibition (10 μM) [19]: 42.6% and 82.1% | inhibition at 10 µM ([20]; read-out: % inhibition (range)): 0% | inhibition at 10 µM ([20]; read-out: inhibition (10 μM)): 10.7% | inhibition at 10 µM ([21]; read-out: % inhibition (range)): 0% | inhibition at 10 µM ([21]; read-out: inhibition (10 μM)): -23.7% | inhibition at 10 µM ([22]; read-out: % inhibition (range)): 0% | inhibition at 10 µM ([22]; read-out: inhibition (10 μM)): 30.1% | inhibition at 10 µM ([23]; read-out: % inhibition (range)): 0% | inhibition at 10 µM ([23]; read-out: inhibition (10 μM)): -30.3%

Nc1ncc(-c2cccc([N+](=O)[O-])c2F)cc1-c1ccc2c(c1)CCNC2=O [Compound I-9, 6-(2-amino-5-(2-fluoro-3-nitrophenyl)pyridin-3-yl)-3,4-dihydroisoquinolin-1(2H)-one]
IC50 [15]: < 40 nM | inhibition at 10 µM ([16]; read-out: % inhibition (range)): 0% | inhibition at 10 µM ([16]; read-out: inhibition (10 μM)): 9.5% | inhibition at 10 µM ([17]; read-out: % inhibition (range)): 50 to 75% | inhibition at 10 µM ([17]; read-out: inhibition (10 μM)): 65.8% | % inhibition (range) [18]: >90% | inhibition (10 μM) [18]: >95% | % inhibition (range) ([19]; 10 μM): >90% | inhibition (10 μM) [19]: 94.0% | inhibition at 10 µM ([19]; read-out: % inhibition (range)): 75 to 90% | inhibition at 10 µM ([19]; read-out: inhibition (10 μM)): 79.4% | inhibition at 10 µM ([20]; read-out: % inhibition (range)): 0% | inhibition at 10 µM ([20]; read-out: inhibition (10 μM)): 19.6% | inhibition at 10 µM ([21]; read-out: % inhibition (range)): 0% | inhibition at 10 µM ([21]; read-out: inhibition (10 μM)): -8.7% | inhibition at 10 µM ([22]; read-out: % inhibition (range)): 50 to 75% | inhibition at 10 µM ([22]; read-out: inhibition (10 μM)): 72.8% | inhibition at 10 µM ([23]; read-out: % inhibition (range)): 0% | inhibition at 10 µM ([23]; read-out: inhibition (10 μM)): -5.4%

Nc1ncc(-c2ccc(NS(=O)(=O)C3CC3)cc2OC2CCCCC2)cc1-c1ccc2c(c1)CCNC2=O [Compound I-65, N-(4-(6-amino-5-(1-oxo-1,2,3,4-tetrahydroisoquinolin-6-yl)pyridin-3-yl)-3-(cyclohexyloxy)phenyl) cyclopropanesulfonamide]
inhibition at 10 µM [1, 24]: 0% | inhibition at 10 µM ([1]; read-out: inhibition (10 μM)): 0.5% | inhibition at 10 µM [2, 24]: 0% | inhibition at 10 µM ([2]; read-out: inhibition (10 μM)): -21% | inhibition at 10 µM [3, 24]: 0% | inhibition at 10 µM ([3]; read-out: inhibition (10 μM)): -6.5% | inhibition at 10 µM [4, 24]: 0% | inhibition at 10 µM ([4]; read-out: inhibition (10 μM)): 7.7% | inhibition at 10 µM [5, 24]: 0% | inhibition at 10 µM ([5]; read-out: inhibition (10 μM)): -0.2% | inhibition at 10 µM [6, 24]: 0% | inhibition at 10 µM ([6]; read-out: inhibition (10 μM)): 29.7% | inhibition at 10 µM [7, 24]: 50 to 75% | inhibition at 10 µM ([7]; read-out: inhibition (10 μM)): 56.5% | % inhibition [8]: 0.0% | inhibition (10 μM) [8]: 4.6% | inhibition at 10 µM [9, 24]: 50 to 75% | inhibition at 10 µM ([9]; read-out: inhibition (10 μM)): 56.9% | inhibition at 10 µM [10, 24]: 0% | inhibition at 10 µM ([10]; read-out: inhibition (10 μM)): 1.7% | inhibition at 10 µM [11, 24]: 0% | inhibition at 10 µM ([11]; read-out: inhibition (10 μM)): -8.9% | inhibition at 10 µM [12, 24]: 35 to 40% | inhibition at 10 µM ([12]; read-out: inhibition (10 μM)): 38.7% | inhibition at 10 µM [13, 24]: 0% | inhibition at 10 µM ([13]; read-out: inhibition (10 μM)): 30.6% | inhibition at 10 µM [14, 24]: 50 to 75% | inhibition at 10 µM ([14]; read-out: inhibition (10 μM)): 66.6%

COc1cc(NS(=O)(=O)C2CC2)ccc1-c1cnc(N)c(-c2ccc3c(c2)CCNC3=O)c1 [Compound I-50, N-(4-(6-amino-5-(1-oxo-1,2,3,4-tetrahydroisoquinolin-6-yl)pyridin-3-yl)-3-methoxyphenyl) cyclopropanesulfonamide]
inhibition at 10 µM [1, 24]: 0% | inhibition at 10 µM ([1]; read-out: inhibition (10 μM)): 15% | inhibition at 10 µM [2, 24]: 0% | inhibition at 10 µM ([2]; read-out: inhibition (10 μM)): -17.9% | inhibition at 10 µM [19, 24]: 0% | inhibition at 10 µM [3, 24]: 0% | inhibition at 10 µM ([3]; read-out: inhibition (10 μM)): -2.8% | inhibition at 10 µM [4, 24]: 50 to 75% | inhibition at 10 µM ([4]; read-out: inhibition (10 μM)): 51.1% | inhibition at 10 µM [5, 24]: 0% | inhibition at 10 µM ([5]; read-out: inhibition (10 μM)): 1.1% | inhibition at 10 µM [6, 24]: 35 to 40% | inhibition at 10 µM ([6]; read-out: inhibition (10 μM)): 46.7% | inhibition at 10 µM [7, 24]: 35 to 40% | inhibition at 10 µM ([7]; read-out: inhibition (10 μM)): 45.9% | % inhibition [8]: 0.0% | inhibition (10 μM) [8]: −2.0% | inhibition at 10 µM [9, 24]: 0% | inhibition at 10 µM ([9]; read-out: inhibition (10 μM)): 30.2% | inhibition at 10 µM [10, 24]: 0% | inhibition at 10 µM ([10]; read-out: inhibition (10 μM)): 20.2% | inhibition at 10 µM [11, 24]: 0% | inhibition at 10 µM ([11]; read-out: inhibition (10 μM)): -31.5% | inhibition at 10 µM [12, 24]: 0% | inhibition at 10 µM ([12]; read-out: inhibition (10 μM)): 31.5% | inhibition at 10 µM [13, 24]: 0% | inhibition at 10 µM ([13]; read-out: inhibition (10 μM)): -14.2% | inhibition at 10 µM [14, 24]: 50 to 75% | inhibition at 10 µM ([14]; read-out: inhibition (10 μM)): 57.6%

Nc1ncc(-c2cc([N+](=O)[O-])ccc2F)cc1-c1ccc2c(c1)CCNC2=O [Compound I-1, 6-(2-amino-5-(2-fluoro-5-nitrophenyl)pyridin-3-yl)-3,4-dihydroisoquinolin-1(2H)-one]
IC50 [15]: 40 to 200 nM
